Assay [1] has as its system LN229 cells. In words: AO staining (acidic vesicles), LN229. Particulars: LN229, IC50 dose, 72 h, compared with cells treated with an IC50 dose of 3. The format is cell-based, human. The procedure:
Flow cytometry. For gaining better insights into the mechanisms of action of the ruthenium complexes, MCF‐7 and LN229 cells incubated with an IC50 dose of 3 or 4, were analyzed via flow cytometry. Several staining protocols were carried out in parallel, in independent experiments: i) AnnV/PI for the detection of apoptotic cell death, ii) AO for the detection of acidic vacuoles, iii) ApoStat for checking caspase activation, iv) CFSE for detecting interference with cellular proliferation, and v) DAPI for the detection of morphological signs of apoptosis. Untreated cells or cells treated only with BSA (control) were also measured, as reference for BSA‐free and BSA‐containing drug formulations, respectively. […] Channels FL1 (green emission), FL2 (orange emission) and/or FL3 (dark red emission) were used for fluorescence detection, according to the specific staining agent. Sideward Scatter (SSC) for MCF‐7 cells treated with 4 or BSA−4 was also analyzed, with respect to the control, for detection of shifts of cell granularity. […]
Staining Protocols for Flow Cytometric Analysis. […] Finally, cells were washed in PBS, resuspended in PBS (or AnnV‐binding buffer for AnnV/PI), and analysed. […] Cells were then washed, trypsinised, dissolved in PBS and analysed by CyFlow® Space Partec using the PartecFloMax® software (Partec GmbH, Münster, Germany). […]

Assay [2] concerns microtubule‐associated protein light chain 3B (LC3B). In words: Western blot analysis of LC3B, LN229. Particulars: LN229, IC50 dose. Format: cell-based, human. The procedure: mouse microglial cell line BV‐2 was a kind gift from Dr. Irena Lavrnja, Institute for Biological Research “Siniša Stanković” (University of Belgrade). Cells were routinely cultivated in HEPES‐buffered RPMI‐ […]
FCS, 2 mM L‐glutamine, 0.01% sodium pyruvate and antibiotics, at 37 °C in a humidified atmosphere with 5% CO2. Peritoneal resident macrophages (Mph) were collected from C57BL/6 mice, obtained from the animal facility at the Institute for Biological Research “Siniša Stanković” (University of Belgrade), via peritoneal lavage with ice‐cold PBS. Cells were counted and seeded in 96‐well plates and incubated overnight, as described above. Before treatment, non‐adherent cells were removed.
Isolation of cells from animals were performed in accordance to local guidelines and approved by the local Institutional Animal Care and Use Committee (IACUC).
Staining Protocols for Flow Cytometric Analysis. For AnnV/PI, AO and ApoStat staining, cells were treated with an IC50 dose of 3 or 4 for 72 h, then detached with trypsin and washed with PBS. […] Finally, cells were washed in PBS, resuspended in PBS (or AnnV‐binding buffer for AnnV/PI), and analysed. […] Cells were then washed, trypsinised, dissolved in PBS and analysed by CyFlow® Space Partec using the PartecFloMax® software (Partec GmbH, Münster, Germany).
Staining Protocols for Fluorescence Microscopy. […]
For orientation: A western blot detects proteins with antibodies after separation by electrophoresis.

Take “closo ‐[3‐(η^6‐p‐Cymene)‐1‐(quinolin‐8‐yl‐acetate)‐3,1,2‐RuC2B9H10] [Compound 4]”: the “number of acidic vesicles (AO staining)” value in assay [1] is “significantly lower”. The “expression of LC3B (western blot)” value in assay [2] is recorded as “significantly diminished”.

Source of the values: paper PMC6973020, “Quinoline‐Conjugated Ruthenacarboranes: Toward Hybrid Drugs with a Dual Mode of Action” (Chemmedchem, 2019).
